# From patent publication US8586739B2, “Heterocyclic compounds and their uses” (Amgen Inc., priority 2007, dated 2013)
# Experiments:
# [1] = test system: mouse model of rheumatoid arthritis; conditions: in vivo; cited from earlier work
# [2] = test system: model of systemic lupus erythematosis; conditions: in vivo; cited from earlier work
# PI3Kδ = biological target: T1, PI3Kδ (Homo sapiens, UniProt O00329); assay: In vitro enzyme assay of recombinant PI3K (residual ATP bioluminescence); type: biochemical
# T1 construct: Full length p110 subunits of PI3k α, β and δ, N-terminally labeled with polyHis tag; polyHis (N); made in house; host or cells: Sf9 insect cells (baculovirus)
# T1 sequence (O00329 whole entry): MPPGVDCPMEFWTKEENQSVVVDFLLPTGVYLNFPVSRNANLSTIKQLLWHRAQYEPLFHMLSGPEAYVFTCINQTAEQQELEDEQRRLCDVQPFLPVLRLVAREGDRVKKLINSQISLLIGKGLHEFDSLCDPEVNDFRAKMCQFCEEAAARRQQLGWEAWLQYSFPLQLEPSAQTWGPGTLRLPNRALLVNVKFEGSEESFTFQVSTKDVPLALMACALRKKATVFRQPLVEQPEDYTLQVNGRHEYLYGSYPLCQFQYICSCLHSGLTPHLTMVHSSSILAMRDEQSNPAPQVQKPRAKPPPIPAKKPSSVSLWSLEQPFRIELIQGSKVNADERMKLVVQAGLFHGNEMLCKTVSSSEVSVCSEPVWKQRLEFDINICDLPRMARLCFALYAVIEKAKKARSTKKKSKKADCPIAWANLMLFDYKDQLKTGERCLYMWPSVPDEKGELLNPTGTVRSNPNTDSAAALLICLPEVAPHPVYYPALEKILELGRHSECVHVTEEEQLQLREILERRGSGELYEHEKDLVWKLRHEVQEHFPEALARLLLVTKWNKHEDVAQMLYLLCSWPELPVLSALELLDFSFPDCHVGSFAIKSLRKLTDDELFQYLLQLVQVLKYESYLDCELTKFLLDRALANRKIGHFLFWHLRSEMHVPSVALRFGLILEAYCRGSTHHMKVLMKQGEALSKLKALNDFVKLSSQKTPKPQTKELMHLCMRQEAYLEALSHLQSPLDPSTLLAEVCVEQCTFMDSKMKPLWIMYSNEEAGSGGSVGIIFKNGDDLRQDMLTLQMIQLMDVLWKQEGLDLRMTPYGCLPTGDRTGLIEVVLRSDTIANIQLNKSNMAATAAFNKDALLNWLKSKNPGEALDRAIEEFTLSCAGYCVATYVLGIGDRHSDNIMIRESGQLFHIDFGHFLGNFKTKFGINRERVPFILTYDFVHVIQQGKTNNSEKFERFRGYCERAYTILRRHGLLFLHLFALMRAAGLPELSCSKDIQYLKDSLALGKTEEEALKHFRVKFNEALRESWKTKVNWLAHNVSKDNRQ
# T1 sequence (P27986 whole entry partner): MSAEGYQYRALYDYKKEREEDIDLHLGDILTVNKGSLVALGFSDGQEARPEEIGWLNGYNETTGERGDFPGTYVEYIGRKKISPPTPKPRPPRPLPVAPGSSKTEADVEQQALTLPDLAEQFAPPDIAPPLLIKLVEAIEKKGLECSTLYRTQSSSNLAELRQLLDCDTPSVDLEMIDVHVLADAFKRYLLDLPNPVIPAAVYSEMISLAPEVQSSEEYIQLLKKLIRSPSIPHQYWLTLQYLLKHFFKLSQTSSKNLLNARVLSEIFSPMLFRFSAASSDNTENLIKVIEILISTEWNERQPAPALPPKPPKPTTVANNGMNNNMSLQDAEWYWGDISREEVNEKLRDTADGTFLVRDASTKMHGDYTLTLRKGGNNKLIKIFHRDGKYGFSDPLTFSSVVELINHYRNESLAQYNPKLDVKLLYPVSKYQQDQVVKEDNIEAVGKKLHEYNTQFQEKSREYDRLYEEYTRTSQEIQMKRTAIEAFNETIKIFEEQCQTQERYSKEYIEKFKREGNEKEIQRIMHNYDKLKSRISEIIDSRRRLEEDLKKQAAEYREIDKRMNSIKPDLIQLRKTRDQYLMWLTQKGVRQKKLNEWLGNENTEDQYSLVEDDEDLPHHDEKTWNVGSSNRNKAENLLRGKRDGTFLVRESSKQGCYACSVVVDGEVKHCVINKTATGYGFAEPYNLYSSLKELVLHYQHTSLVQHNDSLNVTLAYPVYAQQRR
# Protocol: Recombinant Expression of PI3Ks
# Full length p110 subunits of PI3k α, β and δ, N-terminally labeled with polyHis tag, were coexpressed with p85 with Baculo virus expression vectors in sf9 insect cells. P110/p85 heterodimers were purified by sequential Ni-NTA, Q-HP, Superdex-100 chromatography. Purified α, β and δ isozymes were stored at −20° C. in 20 mM Tris, pH 8, 0.2M NaCl, 50% glycerol, 5 mM DTT, 2 mM Na cholate. Truncated PI3Kγ, residues 114-1102, N-terminally labeled with polyHis tag, was expessed with Baculo virus in Hi5 insect cells. The γ isozyme was purified by sequential Ni-NTA, Superdex-200, Q-HP chromatography. The γ isozyme was stored frozen at −80° C. in NaH2PO4, pH 8, 0.2M NaCl, 1% ethylene glycol, 2 mM β-mercaptoethanol.
# Assays were performed in 25 μL with the above final concentrations of components in white polyproplyene plates (Costar 3355). Phospatidyl inositol phosphoacceptor, PtdIns(4,5)P2 P4508, was from Echelon Biosciences. The ATPase activity of the alpha and gamma isozymes was not greatly stimulated by PtdIns(4,5)P2 under these conditions and was therefore omitted from the assay of these isozymes. Test compounds were dissolved in dimethyl sulfoxide and diluted with three-fold serial dilutions. The compound in DMSO (1 μL) was added per test well, and the inhibition relative to reactions containing no compound, with and without enzyme was determined. After assay incubation at room temperature, the reaction was stopped and residual ATP determined by addition of an equal volume of a commercial ATP bioluminescence kit (Perkin Elmer EasyLite) according to the manufacturer's instructions, and detected using a AnalystGT luminometer.
# murine model of asthma = conditions: ovalbumin-induced airway inflammation; cited from earlier work
# p110δ = conditions: cited from earlier work
# protein kinases = conditions: cited from earlier work
# P110β = conditions: cited from earlier work
IC50 (PI3Kδ),Structure (SMILES),other results
–,O=C1NC(=O)/C(=C\c2ccc3nccnc3c2)S1 [AS 605240],efficacy in a mouse model of rheumatoid arthritis [1]: efficacious; onset of disease in a model of systemic lupus erythematosis [2]: delay onset of disease
651 nM,"COc1cccc(F)c1-c1nc2c(C)cccc2cc1CNc1ncnc2[nH]cnc12 [Example 17, N-((2-(2-Fluoro-6-methoxyphenyl)-8-methylquinolin-3-yl)methyl)-9H-purin-6-amine]",–
325 nM,"Cc1cccc2nc(-c3ccccc3Cl)c(CNc3ncnc4[nH]cnc34)nc12 [Example 18, N-((3-(2-Chlorophenyl)-8-methylquinoxalin-2-yl)methyl)-9H-purin-6-amine]",–
66 nM,"Cc1cccc2nc(CNc3ncnc4[nH]cnc34)c(-c3ccccc3Cl)nc12 [Example 19, N-((3-(2-Chlorophenyl)-5-methylquinoxalin-2-yl)methyl)-9H-purin-6-amine]",–
349 nM,"Cc1ccccc1-c1nc2c(C)cccc2cc1COc1ncnc2c1CC(=O)N2 [Example 20, 4-((8-Methyl-2-o-tolylquinolin-3-yl)methoxy)-5H-pyrrolo[2,3-d]pyrimidin-6(7H)-one]",–
125 nM,"Clc1cccc2cc(CNc3ncnc4[nH]cnc34)c(Oc3ccccc3)nc12 [Example 30, N-((8-Chloro-2-phenoxyquinolin-3-yl)methyl)-9H-purin-6-amine]",–
74 nM,"Fc1cccc(-c2nc3c(Cl)cccc3cc2CNc2ncnc3[nH]cnc23)c1 [Example 31, N-((8-Chloro-2-(3-fluorophenyl)quinolin-3-yl)methyl)-9H-purin-6-amine]",–
270 nM,"Clc1cccc2cc(CNc3ncnc4[nH]ccc34)c(-c3ccccc3)nc12 [Example 32, N-((8-chloro-2-phenylquinolin-3-yl)methyl)-7H-pyrrolo[2,3-d]pyrimidin-4-amine]",–
76 nM,"Fc1cc(F)cc(-c2nc3c(Cl)cccc3cc2CNc2ncnc3[nH]cnc23)c1 [Example 33, N-((8-Chloro-2-(3,5-difluorophenyl)quinolin-3-yl)methyl)-9H-purin-6-amine]",–
222 nM,"CS(=O)(=O)c1ccccc1-c1nc2c(Cl)cccc2cc1CNc1ncnc2[nH]cnc12 [Example 35, N-((8-chloro-2-(2-(methylsulfonyl)phenyl)quinolin-3-yl)methyl)-9H-purin-6-amine]",–
225 nM,"Fc1ccc2cc(CNc3ncnc4[nH]cnc34)c(-c3ccccc3Cl)nc2c1 [Example 36, N-((2-(2-Chlorophenyl)-7-fluoroquinolin-3-yl)methyl)-9H-purin-6-amine]",–
1680 nM,"Fc1ccc2nc(-c3ccccc3Cl)c(CNc3ncnc4[nH]cnc34)cc2c1 [Example 37, N-((2-(2-Chlorophenyl)-6-fluoroquinolin-3-yl)methyl)-9H-purin-6-amine]",–
551 nM,"Fc1cc2cc(CNc3ncnc4[nH]cnc34)c(-c3ccccc3Cl)nc2cc1F [Example 38, N-((2-(2-Chlorophenyl)-6,7-difluoroquinolin-3-yl)methyl)-9H-purin-6-amine]",–
31 nM,"Fc1ccc(OCc2ccccc2)c(-c2nc3c(Cl)cccc3cc2CNc2ncnc3[nH]cnc23)c1 [Example 39, N-((2-(2-(Benzyloxy)-5-fluorophenyl)-8-chloroquinolin-3-yl)methyl)-9H-purin-6-amine]",–
13 nM,"CC[C@H](Nc1ncnc2[nH]cnc12)c1cc2cccc(Cl)c2nc1-c1cccc(F)c1 [Example 42, N-((S)-1-(8-Chloro-2-(3-fluorophenyl)quinolin-3-yl)propyl)-9H-purin-6-amine]",–
5 nM,"C[C@H](Nc1ncnc2[nH]cnc12)c1nc2cccc(Cl)c2cc1-c1cccc(F)c1 [Example 43, N-((S)-1-(5-Chloro-3-(3-fluorophenyl)quinolin-2-yl)ethyl)-9H-purin-6-amine]",–
16 nM,"C[C@H](Nc1ncnc2[nH]cnc12)c1cc2cccc(Cl)c2nc1-c1cscn1 [Example 44, N-((S)-1-(8-Chloro-2-(thiazol-4-yl)quinolin-3-yl)ethyl)-9H-purin-6-amine]",–
8 nM,"C[C@H](Nc1ncnc2[nH]cnc12)c1cc2ccc(F)cc2nc1-c1cccs1 [Example 46, N-((S)-1-(7-Fluoro-2-(thiophen-2-yl)quinolin-3-yl)ethyl)-9H-purin-6-amine]",–
–,Cc1ccccc1-n1c(Cn2cnc3c(N)ncnc32)nc2cccc(C)c2c1=O [IC87114],inflammation and disease in a murine model of asthma (murine model of asthma): significantly ameliorate inflammation and disease; inhibits p110δ (p110δ): high nanomolar range (triple digit); activity against any protein kinases tested (protein kinases): no activity
424 nM,C[C@@H](Nc1ncnc2[nH]cnc12)c1cc2cccc(Cl)c2nc1-c1cccc(F)c1 [N-((R)-1-(8-Chloro-2-(3-fluorophenyl)quinolin-3-yl)ethyl)-9H-purin-6-amine],–
6 nM,C[C@H](Nc1ncnc2[nH]cnc12)c1cc2cccc(Cl)c2nc1-c1cccc(F)c1 [N-((S)-1-(8-Chloro-2-(3-fluorophenyl)quinolin-3-yl)ethyl)-9H-purin-6-amine],–
–,Cc1cc(C(C)Nc2ccccc2)c2nc(N3CCOCC3)cc(=O)n2c1 (stereo not shown) [TGX-221],selective over alpha (P110β; beta versus alpha): more than 500 fold; selective over delta (P110β; beta versus delta): 14 fold; selective over gamma (P110β; beta versus gamma): more than 500 fold; IC50 (P110β; read-out: potency on beta): 7 nM
